Data set [1] is described as follows: MTT reduction. Format: cell-based. Conditions: read-out: MTT TC50. On the procedure: (§1) Tetrazolium Dye Reduction: 3-[4,5-dimethylthiazol-2-yl]
Dosing solutions were prepared in complete culture medium.

A short description of another data set: BrdU incorporation. Format: cell-based, human. The following applies: human, run #2, read-out: BrdU TC50; for CC50 at 24 h: SK-MEL28, 24 HR; for CC50 at 72 h: SK-MEL28, 72 HR. On the procedure: Bromodexoyurine (BrDU) Incorporation: This assay was used to monitor cumulative changes in DNA replication. The assay uses the thymidine analog BrdU to measure S-phase of cell replication and is considered to be the Gold Standard for cell proliferation. BrDU (10 μM) was included in the test compound dosing solution to allow BrDU incorporation during cell replication. BrDU was included for the duration of the exposure, 24 hr. After completion of exposure period, the cells were fixed and labeled with mouse monoclonal anti-BrDU (FITC). Fluorescence was measured using a Packard Fusion or equivalent plate reader at 485 nm excitation and 530 nm emission.
Bromodexoyurine (BrDU) Incorporation: After incubation, the test compound/BrDU solution was removed and cells were fixed. A solution containing mouse monoclonal anti-BrDU (FITC) was added and fluorescence was measured. Data were collected as relative fluorescent units (RFU). The blank was subtracted from the final well RFU. It represents the average of the first and last columns which contain no cells on that particular plate. The controls are untreated cells allowed to grow on the same plate. The compounds are represented by several separate RFU data points for each of the tested concentrations. The percent change relative to controls was calculated by dividing the average RFU by the control cell RFU and multiplying by 100.
Experiments were also conducted to verify the relationship between exposure time and the observed cytostatic effects of the test compound. An additional assay was used to monitor cumulative change in DNA replication. The assay uses the thymidine analog BrdU to measure S-phase of cell replication and is considered to be the Gold Standard for cell proliferation. […] The BrdU assay paralleled the MTT and propidium iodide assays. The apparent lower sensitivity of the BrdU assay is a reflection of the experimental design not the assay. BrdU data represents a cumulative effect from the beginning of exposure while the other assays are measuring one is remaining at the end of either the 24 hr or 72 hr exposure period. […] There was a trend toward increasing activity in caspase-3, a marker for cell apoptosis.
Background: Uptake of a labelled nucleoside into DNA is a usual measure of proliferation.

The subject of the next data set is human hepatocytes. The data set is described as follows: Intracellular total glutathione (GSH). Conditions: 24 HR. On the procedure:
(§2) Intracellular Glutathione (GSH) Levels: Intracellular glutathione levels were determined essentially as described by Griffith (1980) with modifications. At the end of the exposure period, the medium was removed from the cells and metaphosphoric acid (MPA) was added to each well. Plates were then shaken for 5 min at room temperature and stored at −20° C. until needed.
(§3) The sample plates were thawed just prior to analysis and centrifuged at >2000×g for at least 2 min. Sample aliquots were removed and transferred to a clean 96-well plate along with appropriate standard curve controls. Sample pH was neutralized just prior to analysis and each well received an aliquot of sodium phosphate reaction buffer containing EDTA, DTNB, NADPH, and glutathione reductase. The plates were mixed for 15-30 min at room temperature and glutathione content was determined calorimetrically with a Packard Fusion or equivalent reader at 415 nm.
(§4) Intracellular Glutathione (GSH) Levels: The assay is based on the concept that all GSH is oxidized to GSSG by DTNB reagent. Two molecules of GSH are required to make one molecule of GSSG. Total GSH was determined by reducing GSSG to 2GSH with glutathione reductase. A standard curve was prepared with oxidized glutathione (GSSG) over a range of concentrations. These concentrations are then converted to glutathione equivalents (GSX) essentially by multiplying the GSSG standard concentrations by 2. The amount of GSX expressed as pmoles/well was determined using the standard curve and regression analysis.
(§5) The test compound consisted of two parts mixed in a constant ratio of 5:1. The final test mixture consisted of Test mix 1 and Test mix 2, which were received as frozen solutions. The test mixture was tested in a ratio of 5:1 COMP A in five different cell types which included the following: SK-MEL28, human hepatocytes, HUVEC, C32, and NHEM cells. Cells were seeded into 96-well plates and cultured in medium containing 10% bovine serum. Following an equilibration period of 48 hr, the cells were treated with the test compound mix at concentrations of COMP A (μg/mL)=(250:50), (125:25), (25:12.5), (12.5:2.5), (2.5:1.25), (1.25:0.25), and (0.25:0.05) for 24 hr (overnight) at 37° C. in 5% CO2. […] Following an equilibration period of 4 hr, the cells were treated with the test compound mix at concentrations of COMP A (μg/mL)=(250:50), (125:25), (25:12.5), (12.5:2.5), (2.5:1.25), (1.25:0.25), and (0.25:0.05) for 24 hr (overnight) at 37° C. in 5% CO2.
(§6) Experimental Protocol: The test compounds were shipped on dry ice for testing. The compounds were stored frozen at −80° C. until needed. Dosing solutions were prepared in complete culture medium. SK-MEL28, human hepatocytes, HUVEC, C32, and NHEM cells were used as the test systems. Cells were seeded into 96-well plates and allowed to equilibrate for approximately 48 hr. Following the equilibration period the cells were exposed to the test compound mix at concentrations of COMP A (μg/mL)=(250:50), (125:25), (25:12.5), (12.5:2.5), (2.5:1.25), (1.25:0.25), and (0.25:0.05). Solubility was determined by Nephalometry techniques immediately after dosing and prior to harvesting the cells at 24 hr. Following the exposure period, the cells or their supernatant (culture medium) were analyzed for changes in cell proliferation, membrane leakage, mitochondrial function, oxidative stress, and apoptosis. The resultant exposure concentration response curves were graphed and analyzed for determining the concentration that produced a half maximal response or TC50.

Another data set deals with HUVEC. The data set can be described thus: Intracellular total glutathione (GSH). The following applies: HUVEC, 24 HR. On the procedure: as §2, §3, §4, §5, §6
A further data set has as its system C32 cells. The data set can be described thus: Intracellular total glutathione (GSH). Conditions: C32, 24 HR. On the procedure: as §2, §3, §4, §5, §6
Data set [2] is described as follows: MTT reduction. Conditions: rat, NRK cells, read-out: MTT TC50. Format: cell-based.
From the text: as §1
The third experiment was done to evaluate the specificity and selectivity of the test compound in another non-tumor cell that was derived from normal rat kidney tissue. In this experiment the test compound has no effect on cell number of acute cell death up to the 500 dilution after 6 and 24 hr of exposure (FIG. 76C and 77C). Significant effects were observed on mitochondrial markers at dilutions that dropped pH to 3.7. The bar graph in FIG. 82 summarizes these effects. […] In contrast the rat tumor cell line was sensitive to the test compound and cell death occurred at the 500 dilution and could not be attributed to low pH.
On the technique in general: Tetrazolium assays rely on reduction of a dye to a coloured formazan, in cell work by metabolically active cells.

Where two headings read alike, the source gives them in different places.

Regarding `CC[C@@]1(O)C(=O)OCc2c1cc1n(c2=O)Cc2cc3ccccc3nc2-1` [CAMPTOTHECIN, Camptothecin], the CC50 at 24 h worked out at 213 µM in “MTT reduction [1]” (human, C32 cells, C32, 24 HR); 41 µM in the data set “MTT reduction [1]” (human, HUVEC); 0.1 µM in the data set “BrdU incorporation” (SK-MEL28 cells); 100 µM in the data set “MTT reduction [2]”. The CC50 at 72 h in the data set “BrdU incorporation” (SK-MEL28 cells) came to 0.2 µM. The “Percent Change in Total GSH” value with human hepatocytes is listed as −69.9%; in the data set on HUVEC it was −85.8%; with C32 cells it was −41.1%. Moreover, the CC50 at 6 h in “MTT reduction [2]” was 300 µM.
On to `C=C(C)[C@H]1Cc2c(ccc3c2O[C@@H]2COc4cc(OC)c(OC)cc4[C@@H]2C3=O)O1` [ROTENONE, Rotenone], for which the CC50 at 24 h in the data set “MTT reduction [1]” (human hepatocytes) is 3 µM; in the data set “BrdU incorporation”, 9 µM; in the data set “MTT reduction [2]”, 10 µM. For the same molecule, the CC50 at 72 h in the data set “BrdU incorporation” is 44 µM. Besides, the “Percent Change in Total GSH” value was determined as 95.9% with human hepatocytes, 11.3% in the data set on HUVEC and 12.9% in the data set with C32 cells. In “MTT reduction [2]”, the CC50 at 6 h stood at 10 µM.
